How the values were obtained:
Bcr-Abl = conditions: preclinical studies; cited from earlier work
[1] = system: c-Abl activation, parkin tyrosine phosphorylation, AIMP2 accumulation; assay: Immunoprecipitation/immunoblot of striatal lysates of MPTP-treated mice; format: in vivo, C57BL/6 mice; conditions: 10 mg/kg i.p. daily one week before and one week after MPTP; vs MPTP alone
SH-SY5Y cells = assay: Lactate dehydrogenase cytotoxicity assay, MPP+-treated cells; format: cell-based; conditions: 6 h pretreatment with 0.5 or 1.0 µM; MPP+ 500 µM; 24 h after exposure
Description: The release of lactate dehydrogenase for cytotoxicity was measured by LDH assay kit (Roche#11644793001). A 100 µL of the supernatant from treated cells was transferred to new 96-well plates. The plates were incubated for 30 min at room temperature on orbital shaker. A colorimetric absorbance was recorded at 490 nm with a reference wavelength of 650 nm using a micro plate reader for colorimetric detection (BioTek, USA). Each experiment was done in triplicate. Cytotoxicity is expressed in terms of percent relative to the basal lactate dehydrogenase release by untreated control cells where controls cells serve as 100 percent.
Figure 4 INNO-406 prevents dopaminergic depletion and c-Abl mediated parkin phosphorylation in mice striatum. (A) INNO-406 prevents MPTP-induced depletion of striatal dopamine and its metabolites DOPAC and HVA in adult male C57BL/J6 mice. Animals received INNO-406 (10 mg/kg, i.p.) as a single daily injection for 7 days before MPTP injection. […] The optical density quantification data as normalized amounts is presented. * Considered statistically significant from control (p<0.05). ** Considered statistically significant from MPTP (p<0.05). (C) Cytotoxicity plotted as a percentage of control as measured by LDH in SH-SY5Y cells treated with MPP^+ (500 µM). […] Differences among means were analyzed using one-way analysis of variance (ANOVA). […]

[2] = Brain levels of INNO-406 in C57 mice after single i.p. injection; format: in vivo; conditions: for Brain level of INNO-406: C57 mice
Description: For pharmacokinetic studies, INNO-406 was injected at 2.5 mg/kg/i.p. or 10 mg/kg/i.p. in C57 mice and brains were harvested 1 h, 4 h, and 24 h after a single injection. In another study, INNO-406 was injected at 2.5 mg/kg/i.p. or 10 mg/kg/i.p. in C57 mice in the presence or absence of MPTP (4×20 mg/kg/i.p. at 2 h interval) after last injection of MPTP and brains were harvested 1 h, 4 h, and 24 h after a single injection of INNO-406. Finally, brain levels of MPP+ in C57 mice were measured 1 h, 4 h, and 24 h after single injection of MPTP (60 mg/kg/i.p.) in the presence or absence of a single injection of INNO-406 (2.5 mg/kg/i.p. or 10 mg/kg/i.p.).
The concentrations of both drugs, Imatinib and INNO-406, were analyzed by a rapid HPLC separation and UV-VIS detection. Briefly, the isocratic HPLC analysis for both Imatinib and INNO-406 were achieved on a C18 Zorbax column (150×4.6 mm, 5 um) (Phenomenex, Torrance, CA) with a simple mobile phase consisting of methanol and deionized water (50∶50% v/v/) at a flow rate of 1.0 ml/min. The effluents were monitored at 223 nm and quantified using the area under the peak from standard solutions dissolved in assay II buffer (0.4 to 25 µg/ml). Assay II buffer consisted of sodium chloride (122 mM), potassium chloride (3 mM), calcium chloride (1.4 mM), magnesium sulfate (1.2 mM), sodium bicarbonate (25 mM), HEPES (10 mM), d-glucose (10 mM) and potassium phosphate (0.4 mM) at Ph of 7.4.

[3] = cited from earlier work
[4] = system: MPTP-induced dopaminergic damage in C57BL/6 mice; assay: MPTP mouse model of PD: TH+ neuron stereology, striatal TH optical density, striatal dopamine; format: in vivo
[5] = Directional permeability of drug analogues across primary BBMEC monolayers (in vitro BBB model); format: in vitro ADME, bovine; conditions: bovine, pH 7.4, donor 10 µM, 0–90 min, mean ± SD, n = 3; for Papp A→B at 10 µM: apical-to-basolateral, read-out: Apparent Permeability Coefficient A → B; for Papp B→A at 10 µM: basolateral-to-apical, read-out: Apparent Permeability Coefficient B → A
Description: (§1) The BBMEC were isolated by a modified method previously described. Briefly, the meninges were removed from the gray matter of fresh cow cerebral cortices and mechanically homogenized through a 100 μm mesh screen. Dispase II enzyme (5 mg/ml) reconstituted in MEM isolation media (MEM ([…]), HEPES (50 mM), polymyxin B (50 ug/ml), gentamicin (50 ug/ml) and amphotercin B (2.5 ug/ml) at pH 7.4) was added to the freshly homogenized cerebral cortical tissue (10 mg/g brain tissue) and MEM isolation media at […] was added (equal w/w of brain tissue). The mixture was placed in an incubated shaker for one hour (37°C, 150 rpm). Following this incubation, the supernatant was removed by centrifugation (10 min at 1570 rcf). […] The crude capillary pellet was collected and re-suspended in a collagenase/dispase (5 mg/ml) solution at a final concentration of 0.1% (v/w) and placed in an incubated shaker (37°C, 150 rpm) for one hour. […] The digested capillaries were centrifuged (10 min, 1700 rcf) to remove the enzymatic treatment and re-suspended in isolation media and pipetted into the percoll gradient tubes. The BBMEC cells were then separated by centrifugation (10 min at 1700 rcf). […] The BBMEC were plated (approximately 50,000 cells/cm^2 density) on collagen-coated, fibronectin-treated culture plates, and incubated in a humidified incubator (37°C with 5% (v/v) CO2). The cells were used after reaching confluence, typically 8-12 days. The concentrations of both drugs, Imatinib and INNO-406, were analyzed by a rapid HPLC separation and UV-VIS detection. […] The effluents were monitored at 223 nm and quantified using the area under the peak from standard solutions dissolved in assay II buffer (0.4 to 25 μg/ml). Assay II buffer consisted of sodium chloride (122 mM), potassium chloride (3 mM), calcium chloride (1.4 mM), magnesium sulfate (1.2 mM), sodium bicarbonate (25 mM), HEPES (10 mM), d-glucose (10 mM) and potassium phosphate (0.4 mM) at Ph of 7.4. The directional comparison of drug analogues transported in primary BBMEC monolayers was determined. These methods have been previously described, [21]. Briefly, the freshly isolated BBMEC were plated in triplicates (50,000 cells/cm^2 seeding density) on collagen-coated, fibronectin-treated polycarbonate membrane inserts, and cultured until confluence (12 mm; 0.4 μm pore size, Costar TranswellTM 12-well, Cambridge, MA). Complete culture media from confluent BBMEC monolayers was replaced 24-hours prior to the start of the experiment. The confluent monolayers were mounted in side-by-side diffusion chambers ([…]) either the apical or the basolateral sides were supplied with fresh assay II buffer with drug (donor chamber, 10 μM). Samples (100 μl) were removed from the […] compartment at various time points (0-90 min) and replaced with fresh buffer. The concentration of drug in the samples was determined spectrophotometrically by HPLC methodology reported above ([…]). The directional transport was expressed as the percent of the respective drug across the BBMEC monolayers over time (Mean ± SD, n = 3).

BBMEC monolayers = assay: as above; format: in vitro ADME, bovine; conditions: for Apparent Permeability Ratio A → B/B→ A: mean ± SD, n = 3
Description: as §1

[6] = INNO-406 10 mg/kg i.p. without MPTP

## Cc1ccc(NC(=O)c2ccc(CN3CC[C@H](N(C)C)C3)c(C(F)(F)F)c2)cc1Nc1nccc(-c2cncnc2)n1 [INNO-406]
Bcr-Abl
  Potency relative to Imatinib in vivo: ≥ 10 fold
[1]
  Striatal level of AIMP2: significant decreases
  Striatal level of phospho-c-Abl: significant decreases
  Striatal level of phospho-parkin: significant decreases
SH-SY5Y cells
  MPP+-induced cytotoxicity (LDH release): prevented
[2]; 1 h after single injection of 10 mg/kg i.p.
  Brain level of INNO-406: 50 ng
[2]; 4 h after single injection of 10 mg/kg i.p.
  Brain level of INNO-406: 80 ng
[2]; 24 h after single injection of 10 mg/kg i.p.
  Brain level of INNO-406: 65 ng
[2]; MPTP 4×20 mg/kg i.p. at 2 h interval, INNO-406 2.5 or 10 mg/kg i.p., 1, 4, 24 h
  Effect of multiple MPTP injections on brain levels of INNO-406: not altered
[3]
  Entry into brain: significantly enter brain
[4]; 10 mg/kg i.p. daily one week before and after MPTP, relative to controls, MPTP alone 70% loss
  Loss of TH staining intensity in striatum in MPTP mice that also received INNO-406: 35%
[4]; 10 mg/kg i.p. daily one week before and one week after MPTP 4×20 mg/kg i.p. every 2 h
  Prevention (decrease) of loss of dopamine (and DOPAC, HVA) in the striatum: 45%
[4]; 10 mg/kg i.p. daily one week before and one week after MPTP 4×20 mg/kg, vs saline, MPTP alone 60–65% loss
  MPTP-induced loss of TH+ neurons in the SNpc in mice also treated with INNO-406: 15–20%
[4]; [6]
  Organization and intensity of TH-immunoreactive neurons in SNpc, INNO-406 alone vs saline: essentially similar
  TH immunoreactivity within the striatum, INNO-406 alone vs control: similar
[5]
  Papp A→B at 10 µM: 98 ± 6.74 ×10⁻⁶ cm/s
  Papp B→A at 10 µM: 94.5 ± 10.1 ×10⁻⁶ cm/s
BBMEC monolayers; apical-to-basolateral, vs Imatinib
  Enhancement of apical-to-basolateral transport across BBMEC monolayers compared to Imatinib: approximately 7.5 fold
BBMEC monolayers
  Apparent Permeability Ratio A → B/B→ A: 1.00±0.119

## Cc1ccc(NC(=O)c2ccc(CN3CCN(C)CC3)cc2)cc1Nc1nccc(-c2cccnc2)n1 [Imatinib]
[3]
  Brain bioavailability: limited brain bioavailability
  Capacity to cross blood-brain barrier: minimal capacity to cross blood-brain barrier
[5]
  Papp A→B at 10 µM: 12.96 ± 0.07 ×10⁻⁶ cm/s
  Papp B→A at 10 µM: 63.86 ± 0.23 ×10⁻⁶ cm/s
BBMEC monolayers
  Apparent Permeability Ratio A → B/B→ A: 0.20±0.001

Reference: publication PMC3669292, “Neuroprotective Efficacy of a New Brain-Penetrating C-Abl Inhibitor in a Murine Parkinson’s Disease Model” (PLoS ONE, 2013)
